IC50 data for one molecule are collected here from publication PMC8773446, “Comparative Analysis of Three Trypanosomatid Catalases of Different Origin” (Antioxidants, 2021).

Molecules are shown by their SMILES.

What all share (conditions): 15 mM H2O2, 50 mM potassium phosphate pH 7, 1 min preincubation; read-out: 3-AT IC50
Assay [1] has as its target Blastocrithidia sp. catalase. It is filed as biochemical. How it is done:
(§1) The enzymatic inhibition was measured with 15 mM H2O2 and 50 mM potassium phosphate, pH 7. The enzyme was incubated with different concentrations of inhibitors (KCN or 3-amino-1,2,4-triazole, hereafter denoted as 3-AT, both from MilliporeSigma) for one minute, then the substrate was added and the residual activity was measured at 240 nm for 2 min [56]. All measurements were performed in triplicate.

Assay [2] concerns the target V. ingenoplastis catalase. The class given is biochemical, Vickermania ingenoplastis. How it is done:
as §1

In the next assay the target is L. pyrrhocoris catalase (Leptomonas pyrrhocoris, UniProt A0A0M9FX30). In words: biochemical. The method, then:
as §1

Sequence of L. pyrrhocoris catalase (A0A0M9FX30 entry or part of it): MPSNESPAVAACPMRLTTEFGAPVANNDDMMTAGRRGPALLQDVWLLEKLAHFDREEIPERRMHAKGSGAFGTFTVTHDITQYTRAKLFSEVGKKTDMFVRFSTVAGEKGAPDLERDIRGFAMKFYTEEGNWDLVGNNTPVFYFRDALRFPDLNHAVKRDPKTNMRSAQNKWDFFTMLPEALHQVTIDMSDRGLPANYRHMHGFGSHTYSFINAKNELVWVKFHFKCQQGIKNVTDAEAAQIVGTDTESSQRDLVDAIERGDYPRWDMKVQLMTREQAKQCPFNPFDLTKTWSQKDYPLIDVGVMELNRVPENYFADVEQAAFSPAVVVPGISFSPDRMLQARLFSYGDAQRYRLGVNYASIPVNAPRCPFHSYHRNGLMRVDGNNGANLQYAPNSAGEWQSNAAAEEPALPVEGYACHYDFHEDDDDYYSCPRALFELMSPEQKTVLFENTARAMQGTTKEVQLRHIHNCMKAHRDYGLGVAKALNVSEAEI

Take `Nc1nc[nH]n1` [3-AT, 3-amino-1,2,4-triazole]: the figures for the IC50 (in assay [1]; in assay [2]; at L. pyrrhocoris catalase) were 15.6 mM, 11.4 mM and 10.4 mM, respectively.
